What all share (assay type): in vitro ADME
Data set [1] in a line: Metabolic stability in liver microsomes, Method I, rat. As to conditions: 1 μM test compound; for microsomal CLint / microsomal CLint at 1 μM: rat; for microsomal CLint: microsomes; for microsomal CLint at 1 μM: male, Sprague-Dawley, liver microsomes.
Description: (§1) Determination of Metabolic Stability in Liver Microsomes—Method I
(§2) The in vitro metabolic stability assay was performed in a 96-well glass plate with shaking incubation at 37° C. A 10 mM DMSO stock solution of the test compound was sequentially diluted 1:1000 to yield a final reaction concentration of 1 μM in 50 mM KPi. […] 30 μL of the 10 μM solution containing the test compound was added to 120 μL of microsomal protein for 150 μL enzyme-compound mixture. The reaction was initiated by adding 150 μL of cofactor solution (2 mM NADPH, 4 mM MgCl in 50 mM KPi) to the enzyme-compound mixture, and the final reaction concentrations are listed in the table below.
(§3) At 0, 5, 10 and 30 minute time points in the reaction, reaction aliquots (50 μL) were removed and the reactions were terminated by the addition of acetonitrile (150 μL) containing a mass spectrometry internal standard (1 μM glyburide). The samples were centrifuged and the supernatants analyzed by LC-MS/MS for quantization of remaining compound.
(§4) Analysis of the samples was performed on a high performance liquid chromatography-tandem mass spectrometry (LC/MS) system consisting of a Thermo TSQ Quantum Ultra mass spectrometer, an H-ESI ion source, a CTC-HTS Pal autosampler, and an Agilent LC Pump.
(§5) Mobile phase A consisted of purified water containing 0.01% formic acid. Mobile phase B consisted of acetonitrile containing 0.01% formic acid. The flow rate was 1 mL/min. The injection volume was 10 μL. Compounds were detected using the Thermo QuikQuan software which collects intensity data for all fragments related to the molecular weight of the test compound. After collection of the raw data, the software identifies and integrates the peak of the strongest intensity.
(§6) Each microsomal elimination rate, kmic, was based on a 4-point elimination curve tested in singlet. LC-MS/MS raw data for a reaction plate was returned as integrated analyte peak areas for the test compound and internal standard used in the quench solution for the reaction to enable use of analyte:internal standard peak area ratios (PARs) for all data comparisons. The reaction time point (e.g. 0, 5, 20 or 30 minutes) was plotted versus the natural logarithm of percent test compound remaining relative to 0 minutes (based on relative PAR).
Data set [2] can be described thus: Metabolic stability in liver microsomes, Method I, mouse. As to conditions: for microsomal CLint: 1 μM test compound; for microsomal CLint at 1 μM: male, CD-1, 1 μM test compound.
Description: as §1, §2, §3, §4, §5, §6
Data set [3] is described as follows: Metabolic stability in liver microsomes, Method I, human. As to conditions: 1 μM test compound; for microsomal CLint at 1 μM: pooled liver microsomes. (In general: Liver microsomes are vesicles of endoplasmic reticulum, rich in cytochrome P450 enzymes.)
Description: as §1, §2, §3, §4, §5, §6
Data set [4] can be described thus: Metabolic stability in liver microsomes, Method II, rat. The settings on record: 1 μM test compound, NADPH + UDPGA; for microsomal CLint at 1 μM: male, Sprague-Dawley.
Description: Determination of Metabolic Stability in Liver Microsomes—Method II
The in vitro metabolic stability assay was performed in a 96-deep-well plate with incubation at 37° C. 10 mM DMSO stock solution of the test compound was diluted 1:20 in acetonitrile, followed by an additional 1:10 dilution in 100 mM potassium phosphate buffer (KPi) to yield a final reaction concentration of 1 μM. […] 290 μL of cofactor solution (1.7 mM NADPH, 1.7 mM UDPGA, 3.4 mM MgCl in 100 mM KPi) was added to 200 μL of microsomal protein for a final volume of 490 μL. The reaction was initiated by adding 10 μL of the 50 μM test solution to 490 μL of microsomal protein for a final volume 500 μL enzyme-compound mixture.
At 0, 5, 15 and 30 minute time points in the reaction, reaction aliquots (75 μL) were removed and the reactions were terminated by the addition of 50:50 acetonitrile/methanol solution (75 μL) containing a mass spectrometry internal standard (0.5 μM glyburide). The samples were centrifuged at 4000 RPM for 10 minutes. Supernatants (15 μL aliquots) were transferred to a new plate where each well contains 90 μL of deionized water. The supernatants solution were analyzed by UPLC/MS/MS for quantitation of parent remaining compound under multiple reactions monitoring mode (MRM) in positive mode.
Analysis of the samples was performed on an ultra-performance liquid chromatography-tandem mass spectrometry (UPLC/MS/MS) system consisting of an AB Sciex Qtrap 5500 mass spectrometer, AB Sciex Turbo V ion source, Waters Acquity Sample Organizer, Waters Acquity Column manager, Waters Acquity Sample manager, and a Waters Acquity Binary Solvent Manager. Chromatographic separation of analyte and internal standard was achieved using a reverse phase C-18 column (50×2.1 mm, 1.7 μm, Acquity UPLC BEH C-18) with the following UPLC mobile phases and elution gradient:
UPLC mobile phase A: 0.25% formic acid in 5% methanol; mobile phase B: 0.25% formic acid in 95% water.
The injection volume was 5 μL. Compounds were detected using Analyst 1.5.1 software which collects intensity data for all fragments related to the molecular weight of the test compound. After collection of the raw data, the software identifies and integrates the peak of the strongest intensity.
Each microsomal elimination rate, k, was based on a 4-point elimination curve tested in duplicates. LC-MS/MS raw data for a reaction plate was returned as integrated analyte peak areas for the test compound and internal standard used in the quench solution for the reaction to enable use of analyte:internal standard peak area ratios (PARs) for all data comparisons. The reaction time point (e.g. 0, 5, 15 and 30 minutes) was plotted versus the natural logarithm of percent test compound remaining relative to 0 minutes (based on relative PAR). The slope of this clearance plot, k, was used to calculate the in vitro half-life.
[formula] The intrinsic clearance value, CLint (expressed as μL/min/mg microsomal protein) calculation is shown below:
[formula] Where V=the incubation volume (mL) and M=the microsomal protein content in the incubation (mg)

Structures can show the parent of a compound that is named as a salt.

By microsomal CLint is commonly meant the capacity of the preparation to metabolise the compound, expressed as a volume cleared per time. With `C[C@H](Nc1ncc(F)c(N2C(=O)OC[C@@H]2CF)n1)c1cn(-c2ccc(C(F)F)cc2)cn1` [434 as TFA salt], the microsomal CLint in data set [1] is 41 µL/min/mg; in data set [2], 10.7 µL/min/mg; in data set [3] it was below 7.7 µL/min/mg; in data set [4], 10.8 µL/min/mg.

Regarding `C[C@H](Nc1nccc(N2C(=O)OC[C@@H]2[C@H](C)F)n1)c1cn(-c2ccc(F)cc2)cn1` [Example 401, (R)-4-((S)-1-fluoroethyl)-3-(2-(((S)-1-(1-(4-fluorophenyl)-1H-imidazol-4-yl)ethyl)amino)pyrimidin-4-yl)oxazolidin-2-one], the microsomal CLint at 1 μM is 30.4 µL/min/mg in data set [1], 33.1 µL/min/mg in data set [2], below 7.7 µL/min/mg in data set [3] and 92.4 µL/min/mg in data set [4].

On to `C[C@H](Nc1nccc(N2C(=O)OC[C@@H]2[C@H](C)F)n1)c1cn(-c2ccc(C(F)F)cc2)cn1` [456 as TFA salt], for which the results for the microsomal CLint in data set [1] and in data set [3] were 44.7 µL/min/mg and 16.8 µL/min/mg, respectively.

Turning to `C[C@H](Nc1nccc(N2C(=O)OC[C@@H]2CF)n1)c1cn(-c2ccc(Cl)c(F)c2)cn1` [473 as TFA salt], the intrinsic clearance (microsomal CLint) is 72.5 µL/min/mg in data set [1], 17.7 µL/min/mg in data set [2], below 7.7 µL/min/mg in data set [3] and 33.3 µL/min/mg in data set [4].

In the case of `CC(Nc1nccc(N2C(=O)OC[C@@H]2[C@@H](C)O)n1)c1nc(-c2ccc3c(c2)OC(F)(F)O3)no1` (single isomer, unassigned) [Example 169], in data set [1], the “Rat microsomal stability CLint” value stood at 60.93 µL/min/mg and the microsomal CLint at 1 μM worked out at 68.8 µL/min/mg.

For `C[C@H](Nc1nccc(N2C(=O)OC[C@@H]2[C@H](C)O)n1)c1ccc(CN2CCN(C)C(C)(C)C2)c(F)c1` [Example 48, (R)-3-(2-((S)-1-(3-fluoro-4-((3,3,4-trimethylpiperazin-1-yl)methyl)phenyl)ethylamino)pyrimidin-4-yl)-4-((S)-1-hydroxyethyl)oxazolidin-2-one], the microsomal CLint at 1 μM is 49.1 µL/min/mg in data set [1], 173 µL/min/mg in data set [2] and 121 µL/min/mg in data set [3].

Turning to `C[C@H](Nc1nccc(N2C(=O)OC[C@@H]2[C@H](C)F)n1)c1ncc(-c2ccnc(C(F)(F)F)c2)cc1F` [Example 463, (R)-3-(2-(((S)-1-(5-fluoro-2′-(trifluoromethyl)-[3,4′-bipyridin]-6-yl)ethyl)amino)pyrimidin-4-yl)-4-((S)-1-fluoroethyl)oxazolidin-2-one], the microsomal CLint at 1 μM in data set [1] came out at 50.8 µL/min/mg; in data set [2], 35.5 µL/min/mg; in data set [3], 28.3 µL/min/mg; in data set [4], 49.8 µL/min/mg.

Consider `C[C@H](Nc1ncc(F)c(N2C(=O)OC[C@@H]2CF)n1)c1ncc(-c2ccc(Cl)cc2)o1` [Example 480, (R)-3-(2-(((S)-1-(5-(4-chlorophenyl)oxazol-2-yl)ethyl)amino)-5-fluoropyrimidin-4-yl)-4-(fluoromethyl)oxazolidin-2-one], for which the intrinsic metabolic clearance (microsomal CLint) at 1 μM was 65.2 µL/min/mg in data set [1], 51.5 µL/min/mg in data set [2] and 35.6 µL/min/mg in data set [3].

As to `CC(Nc1nccc(N2C(=O)OC[C@@H]2[C@@H](C)O)n1)c1nc(-c2ccc(C(F)(F)F)cc2)no1` (single isomer, unassigned) [Example 175], the “Rat microsomal stability CLint” value in data set [1] amounted to 50.51 µL/min/mg. Moreover, the intrinsic metabolic clearance (microsomal CLint) at 1 μM was 56.3 µL/min/mg in data set [2] and 39.8 µL/min/mg in data set [3].

`C[C@H](Nc1nccc(N2C(=O)OC[C@@H]2CF)n1)c1cn(-c2ccc(C(F)F)c(F)c2)cn1` [475 as TFA salt]: the microsomal CLint in data set [1] was 54 µL/min/mg; in data set [2], 15.7 µL/min/mg; in data set [3], below 7.7 µL/min/mg; in data set [4] it was 16.2 µL/min/mg.

With `Cc1cc([C@H](C)Nc2ncc(F)c(N3C(=O)OC[C@@H]3[C@H](C)F)n2)ncc1-c1ccnc(C(F)(F)F)c1` [Example 470, (R)-3-(5-fluoro-2-(((S)-1-(4-methyl-2′-(trifluoromethyl)-[3,4′-bipyridin]-6-yl)ethyl)amino)pyrimidin-4-yl)-4-((S)-1-fluoroethyl)oxazolidin-2-one], the values for the intrinsic clearance (microsomal CLint) at 1 μM in data set [1], in data set [2] and in data set [3] were 52.8 µL/min/mg, 47.3 µL/min/mg and 83.6 µL/min/mg, respectively.

On to `C[C@H](Nc1nccc(N2C(=O)OC[C@@H]2[C@@H](C)N)n1)c1cnc(-c2ccc(Cl)cc2)s1` [Example 380, (S)-4-((R)-1-aminoethyl)-3-(2-(((S)-1-(2-(4-chlorophenyl)thiazol-5-yl)ethyl)amino)pyrimidin-4-yl)oxazolidin-2-one], for which the microsomal CLint at 1 μM was 42.9 µL/min/mg in data set [1], 51 µL/min/mg in data set [2], 31.1 µL/min/mg in data set [3] and 30.2 µL/min/mg in data set [4].

Consider `C[C@H](Nc1nccc(N2C(=O)OC[C@@H]2[C@H](C)F)n1)c1ncc(-c2cccc(C(F)(F)F)c2F)cn1` [Example 467, (R)-3-(2-(((S)-1-(5-(2-fluoro-3-(trifluoromethyl)phenyl)pyrimidin-2-yl)ethyl)amino)pyrimidin-4-yl)-4-((S)-1-fluoroethyl)oxazolidin-2-one], for which the intrinsic clearance (microsomal CLint) at 1 μM in data set [1] came to 75.6 µL/min/mg; in data set [2], 275 µL/min/mg; in data set [3] it was 53.3 µL/min/mg; in data set [4], 85.4 µL/min/mg.

In the case of `C[C@H](Nc1nccc(N2C(=O)OC[C@@H]2[C@H](C)F)n1)c1ccc(-c2ccnc(C(F)(F)F)c2)cn1` [Example 468, (R)-4-((S)-1-fluoroethyl)-3-(2-(((S)-1-(2′-(trifluoromethyl)-[3,4′-bipyridin]-6-yl)ethyl)amino)pyrimidin-4-yl)oxazolidin-2-one], the microsomal CLint at 1 μM in data set [1] turned out to be 30.5 µL/min/mg; in data set [2], 28.9 µL/min/mg; in data set [3] it was 70.1 µL/min/mg.

As for `Cc1cc(-c2cnc([C@H](C)Nc3nccc(N4C(=O)OC[C@@H]4[C@H](C)F)n3)nc2)ccc1F` [Example 469, (R)-3-(2-(((S)-1-(5-(4-fluoro-3-methylphenyl)pyrimidin-2-yl)ethyl)amino)pyrimidin-4-yl)-4-((S)-1-fluoroethyl)oxazolidin-2-one], in data set [1], the intrinsic metabolic clearance (microsomal CLint) at 1 μM came out at 132 µL/min/mg.

In turn, `Cc1ccc(-c2noc(C(C)Nc3ncc(F)c(N4C(=O)OC[C@@H]4[C@@H](C)O)n3)n2)cc1F` (single isomer, unassigned) [Example 122] gave a microsomal CLint at 1 μM in data set [1] of 69.4 µL/min/mg.

For `Cc1cc(-c2ccnc(C(F)(F)F)c2)cnc1[C@H](C)Nc1nccc(N2C(=O)OC[C@@H]2[C@@H](C)O)n1` [Example 61, (R)-4-((R)-1-hydroxyethyl)-3-(2-(((S)-1-(5-methyl-2′-(trifluoromethyl)-[3,4′-bipyridin]-6-yl)ethyl)amino)pyrimidin-4-yl)oxazolidin-2-one], the microsomal CLint at 1 μM in data set [1] is 34.6 µL/min/mg; in data set [2] it was 67.7 µL/min/mg; in data set [3] it was 66.4 µL/min/mg.

On to `C[C@H](Nc1nccc(N2C(=O)OC[C@@H]2CF)n1)c1cn(-c2ccc(Cl)cc2)cn1` [Example 404, (R)-3-(2-(((S)-1-(1-(4-chlorophenyl)-1H-imidazol-4-yl)ethyl)amino)pyrimidin-4-yl)-4-(fluoromethyl)oxazolidin-2-one], for which the microsomal CLint at 1 μM in data set [1] was 44.6 µL/min/mg; in data set [2], 18.7 µL/min/mg; in data set [3], below 7.7 µL/min/mg; in data set [4], 75.4 µL/min/mg.

In data set [1], `CC(Nc1nccc(N2C(=O)OC[C@@H]2[C@@H](C)O)n1)c1nc(-c2ccc(OC(F)(F)F)cc2)no1` (single isomer, unassigned) [Example 181] returned a microsomal CLint at 1 μM of 56.6 µL/min/mg.

In data set [1], `CC(Nc1nccc(N2C(=O)OC[C@@H]2[C@@H](C)O)n1)c1nc(-c2ccc(C(F)(F)F)cc2)no1` (single isomer, unassigned) [Example 174] displayed a microsomal CLint at 1 μM of 48.5 µL/min/mg.

As for `C[C@H](Nc1nccc(N2C(=O)OC[C@@H]2[C@@H](C)O)n1)c1ccc(-c2ccnc(C(F)(F)F)c2)cn1` [Example 55, (R)-4-((R)-1-hydroxyethyl)-3-(2-(((S)-1-(2′-(trifluoromethyl)-[3,4′-bipyridin]-6-yl)ethyl)amino)pyrimidin-4-yl)oxazolidin-2-one], the microsomal CLint at 1 μM was determined as 58.4 µL/min/mg in data set [1] and 63.1 µL/min/mg in data set [2].

The record behind these values is patent US9434719B2, “3-pyrimidin-4-yl-oxazolidin-2-ones as inhibitors of mutant IDH” (NOVARTIS AG, priority 2013, dated 2016).
